Reference: US11578056B2, “Solid forms comprising (S)-2-(2,6-dioxopiperidin-3-yl)-4-((2-fluoro-4-((3-morpholinoazetidin-1-yl)methyl)benzyl)amino)isoindoline-1,3-dione and salts thereof, and compositions comprising and methods of using the same” (Celgene Corporation, priority 2019, dated 2023)

Experiments:
Assay type in all cases: cell-based
hematological cell lines = test: Hematological cell line viability/apoptosis flow cytometry assay, whole panel; conditions: panel of hematological cell lines, 0.00015 to 10 μM, 5 days
Experimental: (§1) Cell Proliferation and Viability Assay Using Hematological Cell Lines: The following exemplary anti-proliferative assay uses exemplary hematological cell lines in the following. The in vitro growth inhibitory activity of Compound 1 described herein was evaluated using a 384-well flow cytometry assay.
The cell lines were plated in 384-well flat bottom plates and assessed with increasing concentrations of compound ranging from 0.00015 to 10 μM or dimethyl sulfoxide (DMSO) control. The final concentration of DMSO was 0.1% (v/v). Following the addition of Compound 1 or DMSO and incubation for 120 hours, cell number and cell death were analyzed by flow cytometry (Attune®, Thermo Fisher) using Annexin V and the live-cell impermeant DNA dye, DRAQ7. […]
Flow cytometry data analysis was then performed using the Flow Jo_v10 software to determine the number of viable cells (Annexin V and DRAQ7 double negative staining cells) and percentage of apoptotic cells (Annexin V positive cells) for each condition. […] The IC50 (50% inhibitory concentration) and Emax (maximum efficacy achieved) values were then calculated by performing nonlinear regression curve fitting using log(inhibitor) vs. normalized response—variable slope analysis on GraphPad Prism 7.03. Area under the curve (AUC) was calculated by performing area under curve analysis on GraphPad Prism 7.03. […]

Daudi cell line = test: Hematological cell line viability/apoptosis flow cytometry assay; conditions: Daudi (BL), 120 h
Method in brief: (§2)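 384-well format; serial dilutions 0.00015–10 μM, DMSO 0.1% v/v, 5 days. Annexin V/DRAQ7 flow readout. Viability normalized to DMSO → IC50, Emax, AUC; apoptosis (early + late) vs DMSO → EC50, Ymax, AUC.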

NCI-H929 cell line = test: as above; conditions: NCI-H929 (MM), 120 h
Method in brief: as §2

SU-DHL-2 cell line = test: as above; conditions: SU-DHL-2 (DLBCL ABC); 120 h
Method in brief: as §2

Karpas-231 cell line = test: as above; conditions: Karpas-231 (ALL), 120 h
Experimental: as §1
The final concentration of DMSO was 0.1% (v/v). Following the addition of Compound 1 or DMSO and incubation for 120 hours, cell number and cell death were analyzed by flow cytometry (Attune®, Thermo Fisher) using Annexin V and the live-cell impermeant DNA dye, DRAQ7. Phosphatidylserine translocates from the inner layer to the outer layer of the cell membrane early in apoptosis and Annexin V binds to the exposed phosphatidylserine found on the surface of an apoptotic cell. The vital dye DRAQ7 is excluded by intact live cells and only stains cells that have died as a result of apoptosis or necrosis.
Flow cytometry data analysis was then performed using the Flow Jo_v10 software to determine the number of viable cells (Annexin V and DRAQ7 double negative staining cells) and percentage of apoptotic cells (Annexin V positive cells) for each condition. The live cell count for every concentration was normalized to the DMSO control (considered as 100%) to calculate the percentage of viable cells remaining after treatment and graphed using GraphPad Prism 7.03. The IC50 (50% inhibitory concentration) and Emax (maximum efficacy achieved) values were then calculated by performing nonlinear regression curve fitting using log(inhibitor) vs. normalized response—variable slope analysis on GraphPad Prism 7.03. Area under the curve (AUC) was calculated by performing area under curve analysis on GraphPad Prism 7.03. Similarly, for apoptosis analysis, the percentage of apoptosis combining both “early” (Annexin V positive and DRAQ7 negative) and “late” apoptosis (Annexin V and DRAQ7 positive) cell gates relative to DMSO was graphed using GraphPad Prism 7.03. The AUC, EC50 (concentration of compound that produces half-maximal apoptosis response) and Ymax (maximal percentage of apoptosis achieved) values from apoptosis curves were calculated by performing area under curve analysis and nonlinear regression curve fitting using log(agonist) vs. normalized response—Variable slope analysis on GraphPad Prism 7.03.
Dose-response proliferation curves for the panel of hematological cell lines and non-linear curve-fit regression were used to determine IC50, AUC, and Emax for % viable cells (Emax for viability varies between 100 at low doses and 0 at high doses, which corresponds to inhibition of all viable cells), and dose-response apoptosis curves were used to determine the EC50, AUC, and Ymax for % apoptosis (Ymax for apoptosis varies from 0 at low doses and 100 at higher doses which corresponds to death of all cells). […] Viability and apoptosis for all cell lines was determined by Annexin V/[…] flow cytometry.

[1] = Homo sapiens, read-out: % Viable Cells IC50

## O=C1CC[C@H](N2C(=O)c3cccc(NCc4ccc(CN5CC(N6CCOCC6)C5)cc4F)c3C2=O)C(=O)N1 [Compound 1, (S)-2-(2,6-dioxopiperidin-3-yl)-4-((2-fluoro-4-((3-morpholinoazetidin-1-yl)methyl)benzyl)amino)isoindoline-1,3-dione]
Hematological cell lines
  antiproliferative activity and/or apoptotic effects: antiproliferative activity and/or apoptotic effects in almost all hematological cell lines tested
Daudi cell line
  % Viable Cells AUC: 196.4
  % Viable Cells Emax: 0%
  Apoptosis AUC: 274
  Apoptosis Ymax: 84.0%
Daudi cell line; Homo sapiens
  EC50: 2.32 µM
Daudi cell line; [1]
  IC50: 0.0006 µM
NCI-H929 cell line; Homo sapiens
  EC50: 11.3 µM
NCI-H929 cell line; [1]
  IC50: 0.0007 µM
NCI-H929 cell line
  % Viable Cells AUC: 215.5
  % Viable Cells Emax: 6.1%
  Apoptosis AUC: 16.86
  Apoptosis Ymax: 7.00%
SU-DHL-2 cell line
  % Viable Cells AUC: 5.586
  % Viable Cells Emax: 0.2145%
  Apoptosis AUC: 928.4
  Apoptosis Ymax: 95.98%
Karpas-231 cell line
  % Viable Cells AUC: 449.4
  % Viable Cells Emax: 0%
  Apoptosis AUC: 5.720
  Apoptosis Ymax: 5.00%
  EC50: 896 µM
Karpas-231 cell line; read-out: % Viable Cells IC50
  IC50: 0.484 µM
